Results: patent publication US11524966B1 (Valo Early Discovery, Inc., priority 2017, dated 2022)

Target: T1, USP28 (His-tagged USP28-FL-mammalian) (Homo sapiens, UniProt Q96RU2)
T1 construct: Expression of USP28 (1-1077)-TEV-6*His (pTT5 vector); made in house; host or cells: Expi293f cells (pTT5 vector)
T1 sequence (Q96RU2 1-1077): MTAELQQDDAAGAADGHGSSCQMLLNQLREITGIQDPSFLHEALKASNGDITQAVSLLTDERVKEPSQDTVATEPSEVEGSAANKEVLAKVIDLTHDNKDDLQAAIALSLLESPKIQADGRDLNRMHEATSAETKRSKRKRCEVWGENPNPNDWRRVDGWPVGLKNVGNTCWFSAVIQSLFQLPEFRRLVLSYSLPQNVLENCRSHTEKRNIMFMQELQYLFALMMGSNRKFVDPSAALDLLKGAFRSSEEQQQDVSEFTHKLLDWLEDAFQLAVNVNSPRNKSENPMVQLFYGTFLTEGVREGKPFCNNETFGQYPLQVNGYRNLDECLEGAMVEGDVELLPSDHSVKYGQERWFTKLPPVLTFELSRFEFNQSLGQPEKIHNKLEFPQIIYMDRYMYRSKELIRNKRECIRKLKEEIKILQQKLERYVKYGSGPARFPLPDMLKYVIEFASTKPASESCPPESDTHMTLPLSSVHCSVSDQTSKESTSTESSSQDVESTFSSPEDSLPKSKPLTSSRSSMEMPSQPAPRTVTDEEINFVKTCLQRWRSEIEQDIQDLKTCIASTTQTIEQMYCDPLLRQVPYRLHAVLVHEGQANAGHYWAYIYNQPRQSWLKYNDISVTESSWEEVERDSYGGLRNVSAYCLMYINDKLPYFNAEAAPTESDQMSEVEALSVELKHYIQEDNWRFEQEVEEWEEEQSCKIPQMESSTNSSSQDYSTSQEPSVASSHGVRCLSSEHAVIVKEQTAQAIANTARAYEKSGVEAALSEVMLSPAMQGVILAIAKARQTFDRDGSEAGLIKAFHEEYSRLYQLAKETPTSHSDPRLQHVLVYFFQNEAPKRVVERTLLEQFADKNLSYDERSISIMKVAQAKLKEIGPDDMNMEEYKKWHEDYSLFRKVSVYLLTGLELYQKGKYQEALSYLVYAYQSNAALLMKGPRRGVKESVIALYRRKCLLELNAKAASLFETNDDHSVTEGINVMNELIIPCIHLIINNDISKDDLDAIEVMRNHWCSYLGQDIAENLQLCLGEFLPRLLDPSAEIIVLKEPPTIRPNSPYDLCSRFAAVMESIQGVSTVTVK
Assay: Ubiquitin-Rhodamine 110 Assay for USP28 Activity, Example A-1(a)
Type: biochemical
Conditions: Ubiquitin-Rhodamine 110 assay, Example A-1(a); read-out: USP28 A-1(a) IC50 range
How it was run: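 Full-length His-tagged human USP28 (1-1077, Expi293f-expressed), […], with 25 nM Ub-Rh110 (<<Km) in pH 8.0 Tris buffer with BME, BGG, Triton X-100. 10-point dilutions (25 μM-1.3 nM), 45 min at room temperature, citric acid stop, fluorescence 485/535 nm; IC50 by 4-parameter fit.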

| SMILES | IC50 [nM] |
| --- | --- |
| Cc1cc(C)c2c(N)c(C(=O)N[C@H]3COc4cc(N5CC[C@@H]6CNC[C@@H]65)cc(F)c4C3)sc2n1 (single isomer, unassigned) [Example 223] | 1 to 50 |
| CO[C@H]1CN(c2nc3c(cc2F)C[C@@H](NC(=O)c2sc4nc(C)ccc4c2N)CC3)C[C@@H]1N [Example 183, 3-amino-N-[(6S)-2-[(3S,4S)-3-amino-4-methoxypyrrolidin-1-yl]-3-fluoro-5,6,7,8-tetrahydroquinolin-6-yl]-6-methylthieno[2,3-b]pyridine-2-carboxamide] | 50 to 200 |
| CO[C@H]1CN(c2cc3c(cc2C#N)C[C@@H](NC(=O)c2sc4nc(C)ccc4c2N)CC3)C[C@@H]1N [Example 201, 3-amino-N-[(2S)-6-[(3S,4S)-3-amino-4-methoxypyrrolidin-1-yl]-7-cyano-1,2,3,4-tetrahydronaphthalen-2-yl]-6-methylthieno[2,3-b]pyridine-2-carboxamide] | 1 to 50 |
| CO[C@H]1CN(c2ccc3c(c2)OC[C@H](NC(=O)c2sc4nc(C)ccc4c2N)C3)C[C@@H]1NC(C)=O [Example 213, 3-amino-N-[(3R)-7-[(3S,4S)-3-acetamido-4-methoxypyrrolidin-1-yl]-3,4-dihydro-2H-1-benzopyran-3-yl]-6-methylthieno[2,3-b]pyridine-2-carboxamide] | 50 to 200 |
| N#Cc1c(N2CC3CCC(C2)N3)cc(F)c2c1OC[C@H](NC(=O)c1cnc3c(c1)[C@H]1C[C@H]1CN3)C2 [Example 229, (6aR,7aS)-N-[(3R)-8-cyano-7-{3,8-diazabicyclo[3.2.1]octan-3-yl}-5-fluoro-3,4-dihydro-2H-1-benzopyran-3-yl]-5H,6H,6aH,7H,7aH-cyclopropa[c]1,8-naphthyridine-2-carboxamide] | 200 to 2000 |
| COC[C@@H]1CN(c2ccc3c(c2)CC[C@H](NC(=O)c2sc4nc(C)ccc4c2N)C3)C[C@@H]1N [Example 252, 3-amino-N-[(2S)-6-[(3R,4R)-3-amino-4-(methoxymethyl)pyrrolidin-1-yl]-1,2,3,4-tetrahydronaphthalen-2-yl]-6-methylthieno[2,3-b]pyridine-2-carboxamide] | 50 to 200 |
| Cc1ccc2c(N)c(C(=O)N[C@H]3COc4cc(N5C[C@@H](N)CC[C@@H]5C(F)(F)F)ccc4C3)sc2n1 [Example 246, 3-amino-N-[(3R)-7-[(2R,5S)-5-amino-2-(trifluoromethyl)piperidin-1-yl]-3,4-dihydro-2H-1-benzopyran-3-yl]-6-methylthieno[2,3-b]pyridine-2-carboxamide] | 1 to 50 |
| CO[C@H]1CN(c2ccc3c(c2C#N)CC[C@H](NC(=O)c2sc4nc(C)ccc4c2N)C3)C[C@@H]1N [Example 178, 3-amino-N-[(2S)-6-[(3S,4S)-3-amino-4-methoxypyrrolidin-1-yl]-5-cyano-1,2,3,4-tetrahydronaphthalen-2-yl]-6-methylthieno[2,3-b]pyridine-2-carboxamide] | 1 to 50 |
| O=C(N[C@H]1CCc2cc(N3CC4CCC(C3)N4)cc(F)c2C1)c1cnc2c(c1)[C@@H]1C[C@@H]1CN2 [Example 191, (6aS,7aR)-N-[(2S)-6-{3,8-diazabicyclo[3.2.1]octan-3-yl}-8-fluoro-1,2,3,4-tetrahydronaphthalen-2-yl]-5H,6H,6aH,7H,7aH-cyclopropa[c]1,8-naphthyridine-2-carboxamide] | > 2000 |
| COC[C@H]1CN(c2cc(F)c3c(c2)OC[C@H](NC(=O)c2sc4nc(C)ccc4c2N)C3)C[C@H]1N [Example 251, 3-amino-N-[(3R)-7-[(3S,4S)-3-amino-4-(methoxymethyl)pyrrolidin-1-yl]-5-fluoro-3,4-dihydro-2H-1-benzopyran-3-yl]-6-methylthieno[2,3-b]pyridine-2-carboxamide] | 1 to 50 |
| Cc1ccc2c(N)c(C(=O)N[C@H]3CCc4nc(N5CC[C@@H]6CNC[C@@H]65)ccc4C3)sc2n1 [Example 217, N-[(6S)-2-[(3aR,6aR)-octahydropyrrolo[2,3-c]pyrrol-1-yl]-5,6,7,8-tetrahydroquinolin-6-yl]-3-amino-6-methylthieno[2,3-b]pyridine-2-carboxamide] | 1 to 50 |
| Cc1ccc2c(N)c(C(=O)N[C@H]3Cc4ccc(N5CCNCC5)nc4[C@@H](C)C3)sc2n1 [Example 206, 3-amino-6-methyl-N-[(6R,8S)-8-methyl-2-(piperazin-1-yl)-5,6,7,8-tetrahydroquinolin-6-yl]thieno[2,3-b]pyridine-2-carboxamide] | 50 to 200 |
| Cc1ccc2c(N)c(C(=O)N[C@H]3COc4cc(N5CC[C@@H]6CCNC[C@@H]65)ccc4C3)sc2n1 [Example 225] | 1 to 50 |
| Cc1ccc2c(N)c(C(=O)N[C@H]3COc4cc(N5C[C@@H](N)C(C)(C)C5)ccc4C3)sc2n1 [Example 215, 3-amino-N-[(3R)-7-[(4S)-4-amino-3,3-dimethylpyrrolidin-1-yl]-3,4-dihydro-2H-1-benzopyran-3-yl]-6-methylthieno[2,3-b]pyridine-2-carboxamide] | 1 to 50 |
| CO[C@]1(C)CN(c2ccc3c(n2)CC[C@H](NC(=O)c2sc4nc(C)ccc4c2N)C3)C[C@H]1N [Example 211, 3-amino-N-[(6S)-2-[(3R,4R)-4-amino-3-methoxy-3-methylpyrrolidin-1-yl]-5,6,7,8-tetrahydroquinolin-6-yl]-6-methylthieno[2,3-b]pyridine-2-carboxamide] | 50 to 200 |
| Cc1ccc2c(N)c(C(=O)N[C@H]3COc4cc(N5CC6CCC[C@]6(N)C5)ccc4C3)sc2n1 (stereo partly drawn) [Example 249, N-[(3R)-7-[(3aR)-3a-amino-octahydrocyclopenta[c]pyrrol-2-yl]-3,4-dihydro-2H-1-benzopyran-3-yl]-3-amino-6-methylthieno[2,3-b]pyridine-2-carboxamide] | 1 to 50 |
| CO[C@H]1CN(c2cc3c(c(F)c2C#N)C[C@@H](NC(=O)c2sc4nc(C)cnc4c2N)CO3)C[C@@H]1N [Example 199, 7-amino-N-[(3R)-7-[(3S,4S)-3-amino-4-methoxypyrrolidin-1-yl]-6-cyano-5-fluoro-3,4-dihydro-2H-1-benzopyran-3-yl]-3-methylthieno[2,3-b]pyrazine-6-carboxamide] | 1 to 50 |
| Cc1ccc2c(N)c(C(=O)N[C@H]3COc4cc(N5C[C@@H](N)C(F)(F)C5)ccc4C3)sc2n1 [Example 257, 3-amino-N-[(3R)-7-[(4R)-4-amino-3,3-difluoropyrrolidin-1-yl]-3,4-dihydro-2H-1-benzopyran-3-yl]-6-methylthieno[2,3-b]pyridine-2-carboxamide] | 1 to 50 |
| Cc1ccc2c(N)c(C(=O)N[C@H]3COc4cc(N5CCO[C@H]6CNC[C@H]65)ccc4C3)sc2n1 [Example 184, N-[(3R)-7-[(4aR, 7aS)-octahydropyrrolo[3,4-b]morpholin-4-yl]-3,4-dihydro-2H-1-benzopyran-3-yl]-3-amino-6-methylthieno[2,3-b]pyridine-2-carboxamide] | 1 to 50 |
| N#Cc1c(N2CC3CCC(C2)N3)cc(F)c2c1OC[C@H](NC(=O)c1cnc3c(c1)[C@@H]1C[C@@H]1CN3)C2 [Example 228, (6aS,7aR)-N-[(3R)-8-cyano-7-{3,8-diazabicyclo[3.2.1]octan-3-yl}-5-fluoro-3,4-dihydro-2H-1-benzopyran-3-yl]-5H,6H,6aH,7H,7aH-cyclopropa[c]1,8-naphthyridine-2-carboxamide] | 200 to 2000 |
| N#Cc1c(N2CC3CCC(C2)N3)cc(F)c2c1CC[C@H](NC(=O)c1cnc3c(c1)[C@@H]1C[C@@H]1CN3)C2 [Example 195, (6aS,7aR)-N-[(2S)-5-cyano-6-{3,8-diazabicyclo[3.2.1]octan-3-yl}-8-fluoro-1,2,3,4-tetrahydronaphthalen-2-yl]-5H,6H,6aH,7H,7aH-cyclopropa[c]1,8-naphthyridine-2-carboxamide] | 1 to 50 |
| Cc1ccc2c(N)c(C(=O)N[C@H]3COc4cc(N5C[C@H](N)C(C)(C)C5)ccc4C3)sc2n1 [Example 214, 3-amino-N-[(3R)-7-[(4R)-4-amino-3,3-dimethylpyrrolidin-1-yl]-3,4-dihydro-2H-1-benzopyran-3-yl]-6-methylthieno[2,3-b]pyridine-2-carboxamide] | 1 to 50 |
| Cc1ccc2c(N)c(C(=O)N[C@H]3Cc4ccc(N5CCNCC5)nc4[C@H](C)C3)sc2n1 [Example 208, 3-amino-6-methyl-N-[(6R,8R)-8-methyl-2-(piperazin-1-yl)-5,6,7,8-tetrahydroquinolin-6-yl]thieno[2,3-b]pyridine-2-carboxamide] | 1 to 50 |
